Assays:
[1] = test system: HEK293; test: IC50 for inhibition of ZIKV NS1 production
Protocol: (§1)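 HEK293 cells in 1536-well plates were pre-treated with compound for 1 h, infected with ZIKV (MOI 1) for 24 h, and NS1 antigen (intra- plus extracellular) was measured by TR-FRET. Confirmation used 11-point 1:3 dilutions, and IC50 and maximal inhibition were fitted in GraphPad Prism.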

[2] = test system: HEK293; test: maximal inhibition of ZIKV NS1 production (% inhibition); higher = stronger antiviral effect
Protocol: as §1

[3] = test system: HEK293; test: cytotoxicity IC50 (ATP content, uninfected cells); higher = less cytotoxic; settings: infection: none

Row | SMILES | IC50 [1] [µM] | maximal inhibition [2] | cytotoxicity IC50 [3] [µM]
1 | CC[C@@H]([C@H](C)O)n1ncn(-c2ccc(N3CCN(c4ccc(OC[C@@H]5CO[C@@](Cn6cncn6)(c6ccc(F)cc6F)C5)cc4)CC3)cc2)c1=O | 18 | 73 | 9.7
2 | Cc1[nH]nc2ccc(-c3cncc(OC[C@@H](N)Cc4ccccc4)c3)cc12 | 5.1 | 97 | 0.36
3 | C=C1C(=O)O[C@H]2[C@H]1CC/C(C)=C/CC[C@@]1(C)O[C@@H]21 | 43 | 106 | 20
4 | CS[C@H]1SC[C@H]2C(=O)N(C)[C@@H](C(C)C)C(=O)OC[C@@H](NC(=O)c3cnc4ccccc4n3)C(=O)N[C@@H](C)C(=O)N(C)[C@@H]1C(=O)N(C)[C@@H](C(C)C)C(=O)OC[C@@H](NC(=O)c1cnc3ccccc3n1)C(=O)N[C@@H](C)C(=O)N2C | 0.017 | 98 | > 100
5 | COc1cccc2c1C(=O)c1c(O)c3c(c(O)c1C2=O)C[C@@](O)(C(=O)CO)C[C@@H]3O[C@H]1C[C@H](N)[C@H](O[C@@H]2CCCCO2)[C@H](C)O1 | 5.6 | 75 | > 100
6 | O=C(O)c1ccc2cc(-c3ccc(O)c(C45CC6CC(CC(C6)C4)C5)c3)ccc2c1 | 1.7 | 97 | 45
7 | Cc1c(O)cccc1C(=O)N[C@@H](CSc1ccccc1)[C@H](O)CN1C[C@H]2CCCC[C@H]2C[C@H]1C(=O)NC(C)(C)C | 24 | 84 | > 100
8 | O=C1c2ccccc2-[n+]2ccc3c([nH]c4ccccc43)c21 | 2 | 86 | 7.5
9 | CCCCC1C(=O)N(c2ccccc2)N(c2ccc(O)cc2)C1=O (stereo not given) | 17 | 107 | > 100
10 | O=C(c1ccc(Nc2nccc(-c3cc4ccccc4s3)n2)cc1)N1CCC(N2CCCC2)CC1 | 16 | 100 | > 100
11 | O=C1[C@H](Cc2ccc(O)cc2)N2C(=O)CCN(C(=O)NCc3ccccc3)[C@H]2CN1Cc1cccc2ccccc12 | 13 | 103 | > 100
12 | CN(Cc1cnc2nc(N)nc(N)c2n1)c1ccc(C(=O)N[C@@H](CCC(=O)O)C(=O)O)cc1 | 0.46 | 95 | 0.24
13 | COC(=O)Nc1nc2cc(C(=O)c3ccccc3)ccc2[nH]1 | 1 | 69 | > 100
14 | Cc1cc(Nc2cc(NC(=O)c3c(Cl)cccc3Cl)ccn2)nc(N)n1 | 35 | 97 | 70
15 | O=C1/C(=C/c2ccccc2)C[C@@]2(O)[C@H]3Cc4ccc(O)c5c4[C@@]2(CCN3CC2CC2)[C@H]1O5 | 7.2 | 106 | 2.4
16 | CC[C@]1(O)C[C@@H]2CN(CCc3c([nH]c4ccccc34)[C@@](C(=O)OC)(c3cc4c(cc3OC)N(C)[C@H]3[C@@](O)(C(=O)OC)[C@H](OC(C)=O)[C@]5(CC)C=CCN6CC[C@]43[C@@H]65)C2)C1 | 5.6 | 73 | > 100
17 | C=CC(=O)N1CCc2ccc(-n3c(=O)ccc4cnc5ccc(-c6cnn(C)c6)cc5c43)cc21 | 13 | 105 | > 100
18 | Cc1cc2c(F)c(Oc3ncnn4cc(OC[C@@H](C)O)c(C)c34)ccc2[nH]1 | 2.9 | 104 | 1.4
19 | CCCCCC(=O)O[C@]1(C(C)=O)CC[C@H]2[C@@H]3CCC4=CC(=O)CC[C@]4(C)[C@H]3CC[C@@]21C | 50 | 99 | 7.9
20 | COc1cccc2c(NCc3ccccc3)nc(-n3c(N)nc4ccccc43)nc12 | 50 | 100 | 30

Row | SMILES | IC50 [1] [µM] | maximal inhibition [2] | cytotoxicity IC50 [3] [µM]
21 | CN(C)c1ccc(C(=C2C=CC(=[N+](C)C)C=C2)c2ccccc2)cc1 | 1.6 | 102 | 1.8
22 | O=[N+]([O-])c1ccc(O)c2ncccc12 | 6 | 94 | 4.7
23 | CC1=C(O)C(=O)C=C2C1=CC=C1[C@@]2(C)CC[C@@]2(C)[C@@H]3C[C@](C)(C(=O)O)CC[C@]3(C)CC[C@]12C | 3.4 | 106 | 2.2
24 | c1ccc2c(-c3cnn4cc(-c5ccc(N6CCNCC6)cc5)cnc34)ccnc2c1 | 6.1 | 106 | 80
25 | CO[C@H]1[C@H](O)[C@@H](O)[C@H](n2c3c(Cl)cccc3c3c4c(c5c6cccc(Cl)c6[nH]c5c32)C(=O)NC4=O)O[C@@H]1CO | 2.1 | 90 | 60
26 | Nc1nc(F)nc2c1ncn2[C@@H]1O[C@H](CO)[C@@H](O)[C@H]1O | 2.9 | 98 | 11
27 | CCCCc1ccc2[nH]c(NC(=O)OC)nc2c1 | 0.69 | 80 | 3
28 | CC[C@@]1(O)C(=O)OCc2c1cc1n(c2=O)Cc2cc3c(CN(C)C)c(O)ccc3nc2-1 | 0.051 | 96 | > 100
29 | CCc1c2c(nc3ccc(O)cc13)-c1cc3c(c(=O)n1C2)COC(=O)[C@]3(O)CC | 0.011 | 61 | > 100
30 | COc1cc(NCc2ccc3nc(N)nc(N)c3c2C)cc(OC)c1OC | 1.6 | 99 | 2.2
31 | c1ccc2c(CCNc3ccc(Nc4ccncc4)cc3)c[nH]c2c1 | 23 | 51 | > 100
32 | COc1cc2nc(-c3cc(F)ccc3O)nc(N[C@@H]3CNC[C@H]3C(C)(C)O)c2cc1OC | 12 | 98 | 45
33 | CCCCCC[C@H]1C(=O)O[C@H](C)[C@H](NC(=O)c2cccc(NC=O)c2O)C(=O)O[C@@H](C)[C@@H]1OC(=O)CC(C)C | 0.012 | 94 | 0.0055
34 | CC[C@@]1(O)C(=O)OCc2c1cc1n(c2=O)Cc2cc3ccccc3nc2-1 | 0.026 | 82 | > 100
35 | C#C[C@]1(OC(C)=O)CC[C@H]2[C@@H]3CCC4=C/C(=N/O)CC[C@@H]4[C@H]3CC[C@@]21CC | 43 | 48 | > 100
36 | Cc1ccccc1C(=O)c1ccc(Nc2ccc(Br)cc2N)cc1Cl | 40 | 68 | > 100
37 | CCc1nc(N)nc(N)c1-c1ccc(Cl)cc1 | 45 | 88 | 14
38 | C[C@@H]1O[C@@H](O[C@H]2C[C@@H](O)[C@]3(CO)[C@H]4[C@H](O)C[C@]5(C)[C@@H](C6=CC(=O)OC6)CC[C@]5(O)[C@@H]4CC[C@]3(O)C2)[C@H](O)[C@H](O)[C@H]1O | 0.17 | 102 | 0.19
39 | CNc1ccc2oc(C[C@H]3O[C@@]4(CC[C@H]3C)O[C@H]([C@H](C)C(=O)c3ccc[nH]3)[C@H](C)C[C@H]4C)nc2c1C(=O)O | 6.2 | 96 | 20
40 | CC(C)C[C@H](NC(=O)CNC(=O)c1cc(Cl)ccc1Cl)B(O)O | 0.23 | 102 | 2.1

Reference: the supplement of paper PMC8498969
